Consider 3 molecules from patent publication US9181307B2, “Influenza A 2009 pandemic H1N1 polypeptide fragments comprising endonuclease activity and their use” (priority 2010, dated 2015).

The subject of this assay is endonucleolytically active site of the Influenza A 2009 pandemic H1N1 PA subunit polypeptide fragment or variant thereof. As to the kind of experiment: Co-crystallisation / X-ray structure: binding to the endonucleolytically active site. Set-up: species or system Influenza A 2009 pandemic H1N1 virus.

SMILES strings stand for the structures.

`O=C(O)/C(O)=C/C(=O)C1(Cc2ccc(Cl)cc2)CCN(CC2CCCCC2)CC1` [EMBL-R05-2, 4-[4-[(4-chlorophenyl)methyl]-1-(cyclohexylmethyl)-4-piperidinyl]-2-hydroxy-4-oxo-2-butenoic acid]: the “ability to bind to the endonucleolytically active site” value was “able to bind to the endonucleolytically active site”.
For `O=C(O)/C(O)=C/C(=O)C1(Cc2ccc(Cl)cc2)CCCN(Cc2ccccc2)C1` (stereo not drawn) [EMBL-R05-3, 4-[3-[(4-chlorophenyl)methyl]-1-(phenylmethyl)-3-piperidinyl]-2-hydroxy-4-oxo-2-butenoic acid] the value was “able to bind to the endonucleolytically active site”; for `O=C(O[C@@H]1Cc2c(O)cc(O)cc2O[C@@H]1c1cc(O)c(O)c(O)c1)c1cc(O)c(O)c(O)c1` [EGCG, [(2R,3R)-5,7-dihydroxy-2-(3,4,5-trihydroxyphenyl)chroman-3-yl]3,4,5-trihydroxybenzoate], “able to bind to the endonucleolytically active site”.
